Source: ChEMBL document CHEMBL4765394, “From irreversible to reversible covalent inhibitors: Harnessing the andrographolide scaffold for anti-inflammatory action” (Eur J Med Chem, 2020)
Calls of active or inactive are those of the source. The rule behind the calls is not given here.

Columns and labels:
RAW-Blue [1] = assay: Activation of NF-kappaB activity in mouse RAW-Blue cells assessed as increase in SEAP reporter activity at 30 uM measured after 24 hrs in presence of p38 inhibitor SB203580 by SEAP reporter gene assay; assay type: cell-based
RAW-Blue [2] = assay: Inhibition of LPS-induced NF-kappaB activity in mouse RAW-Blue cells assessed as reduction in SEAP reporter activity at 5 to 20 uM preincubated for 1 hr followed by LPS stimulation and measured after 8 hrs by SEAP reporter gene assay; assay type: cell-based; settings: dose 5-20 µM, time 9.0 hrs
[3] = Aqueous stability of compound; assay type: physicochemical; settings: buffer
[4] = Effect on total AKT expression in LPS-induced mouse RAW264.7 cells at 5 to 20 uM measured after 4 hrs by Western blot analysis; settings: raw264.7, 4 h, dose 5-20 µM
[5] = molecular target: T1, Mitogen-activated protein kinase 1 and 3 (ERK2 and ERK1) (Mus musculus) (UniProt P63085+Q63844); assay: Inhibition of LPS-induced ERK1/2 activation in BSO-treated mouse RAW264.7 cells assessed as reduction in ERK1/2 phosphorylation at 10 uM preincubated for 1 hr followed by LPS-stimulation measured after 4 hrs by Western blot analysis; settings: time 5.0 hrs
[6] = molecular target: RAC-alpha serine/threonine-protein kinase (Mus musculus) (UniProt P31750); assay: Inhibition of LPS-induced AKT activation in mouse RAW264.7 cells assessed as reduction in AKT phosphorylation measured after 4 hrs by Western blot analysis; assay type: cell-based
RAW264.7 [7] = assay: Cytotoxicity against mouse RAW264.7 cells assessed as reduction cell viability at 5 to 50 uM measured after 24 hrs by Celltiter-glo assay; assay type: cell-based; settings: raw264.7, 24 h, dose 5-50 µM
Mus musculus [8] = assay: Antiinflammatory activity in LPS-induced BALB/c mouse model of acute lung injury assessed as reduction in total cell count at 1 mg/kg, ip administered twice daily for 4 days starting 1 hr post LPS challenge by differential staining based flow cytometry relative to control; assay type: functional; set-up: scale not given: the % may be the effect or the level left; settings: time 4 day
RAW264.7 [9] = assay: Antiinflammatory activity in mouse RAW264.7 cells assessed as inhibition of LPS-induced IL6 release at 5 to 10 uM preincubated for 1 hr followed by LPS stimulation and measured after 24 hrs by ELISA; assay type: functional, cell-based; settings: dose 5-10 µM, time 25.0 hrs
[10] = Cytotoxicity against human L02 cells assessed as reduction in cell viability measured after 24 hrs by Celltiter-glo assay; assay type: cell-based
Mus musculus [11] = assay: Antiinflammatory activity in ip dosed LPS-induced BALB/c mouse model of acute lung injury assessed as reduction in total cell count administered twice daily for 4 days starting 1 hr post LPS challenge by differential staining based flow cytometry; assay type: functional, organism-based; settings: time 4.0 day
RAW-Blue [12] = assay: Activation of NF-kappaB activity in mouse RAW-Blue cells assessed as increase in SEAP reporter activity at 5 to 20 uM measured after 24 hrs by SEAP reporter gene assay; assay type: cell-based; settings: dose 5-20 µM
[13] = GSH reactivity in PBS assessed as isomerization measured up to 24 hrs by HPLC-MS analysis; assay type: ADME; settings: buffer
RAW264.7 [14] = assay: Antiinflammatory activity in 4 hrs NAC-pretreated mouse RAW264.7 cells assessed as inhibition of LPS-induced TNFalpha release at 10 uM preincubated for 1 hr followed by LPS stimulation and measured after 4 hrs by ELISA relative to control; assay type: functional; settings: time 5 hrs
[15] = molecular target: RAC-alpha serine/threonine-protein kinase (Mus musculus) (UniProt P31750); assay: Inhibition of LPS-induced AKT activation in BSO-treated mouse RAW264.7 cells assessed as reduction in AKT phosphorylation at 10 uM preincubated for 1 hr followed by LPS-stimulation measured after 4 hrs by Western blot analysis; settings: time 5.0 hrs
[16] = molecular target: T2, Nuclear factor NF-kappa-B p105 subunit (Homo sapiens) (UniProt P19838); assay: Inhibition of DNA binding activity of human NF-kappaB p50 measured after 1 hr by ELISA
T2 sequence (whole entry): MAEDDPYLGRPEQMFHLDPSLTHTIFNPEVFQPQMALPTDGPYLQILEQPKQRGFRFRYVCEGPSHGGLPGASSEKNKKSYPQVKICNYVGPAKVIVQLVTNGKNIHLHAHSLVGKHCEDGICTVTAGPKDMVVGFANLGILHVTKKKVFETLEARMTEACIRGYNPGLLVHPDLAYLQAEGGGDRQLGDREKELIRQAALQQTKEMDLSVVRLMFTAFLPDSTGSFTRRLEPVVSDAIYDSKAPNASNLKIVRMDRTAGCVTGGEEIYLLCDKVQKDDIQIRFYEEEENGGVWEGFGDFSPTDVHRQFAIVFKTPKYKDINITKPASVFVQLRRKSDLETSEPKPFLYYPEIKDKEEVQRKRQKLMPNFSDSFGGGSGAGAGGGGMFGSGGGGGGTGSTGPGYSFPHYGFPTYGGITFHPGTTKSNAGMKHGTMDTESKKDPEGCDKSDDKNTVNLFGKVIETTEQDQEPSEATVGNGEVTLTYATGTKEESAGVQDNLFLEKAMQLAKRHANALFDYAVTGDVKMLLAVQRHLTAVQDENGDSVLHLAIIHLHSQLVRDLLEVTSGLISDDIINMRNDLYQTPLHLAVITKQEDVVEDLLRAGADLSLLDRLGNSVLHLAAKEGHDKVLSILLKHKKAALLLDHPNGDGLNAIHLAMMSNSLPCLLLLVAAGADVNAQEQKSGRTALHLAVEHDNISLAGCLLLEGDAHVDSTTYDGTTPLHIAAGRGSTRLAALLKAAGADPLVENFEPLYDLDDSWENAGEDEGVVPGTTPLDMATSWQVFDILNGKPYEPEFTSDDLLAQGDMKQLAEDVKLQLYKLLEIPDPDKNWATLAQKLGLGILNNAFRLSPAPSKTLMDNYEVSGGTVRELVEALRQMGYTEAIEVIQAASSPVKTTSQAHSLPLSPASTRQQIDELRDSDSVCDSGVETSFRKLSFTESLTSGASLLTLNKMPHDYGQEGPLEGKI

RAW264.7 [17] = assay: Antiinflammatory activity in 24 hrs NAC-pretreated mouse RAW264.7 cells assessed as inhibition of LPS-induced TNFalpha release at 10 uM preincubated for 1 hr followed by LPS stimulation and measured after 4 hrs by ELISA relative to control; assay type: functional; settings: time 5 hrs
Mus musculus [18] = assay: Antiinflammatory activity in ip dosed LPS-induced BALB/c mouse model of acute lung injury assessed as reduction in neutrophil cell count administered twice daily for 4 days starting 1 hr post LPS challenge by differential staining based flow cytometry; assay type: functional, organism-based; settings: time 4.0 day
[19] = molecular target: T1, Mitogen-activated protein kinase 1 and 3 (ERK2 and ERK1) (Mus musculus); assay: Inhibition of LPS-induced ERK1/2 activation in mouse RAW264.7 cells assessed as reduction in ERK1/2 phosphorylation at 20 uM measured after 4 hrs by Western blot analysis; assay type: cell-based
RAW264.7 [20] = assay: Activation of JNK phosphorylation in BSO-treated mouse RAW264.7 cells at 50 uM measured after 4 hrs by Western blot analysis
[21] = molecular target: T2, Nuclear factor NF-kappa-B p105 subunit (Homo sapiens); assay: Binding affinity to human NF-kappaB p50 assessed as compound-adduct formation by MALDI-TOF analysis
[22] = GSH reactivity in PBS assessed as GSH adduct formation measured up to 8 hrs by HPLC-MS analysis; assay type: ADME; settings: buffer
RAW264.7 [23] = assay: Antiinflammatory activity in mouse RAW264.7 cells assessed as inhibition of LPS-induced TNFalpha release at 5 to 10 uM preincubated for 1 hr followed by LPS stimulation and measured after 4 hrs by ELISA; assay type: functional, cell-based; settings: dose 5-10 µM, time 5.0 hrs
RAW264.7 [24] = assay: Antiinflammatory activity in 2 hrs NAC-pretreated mouse RAW264.7 cells assessed as inhibition of LPS-induced TNFalpha release at 10 uM preincubated for 1 hr followed by LPS stimulation and measured after 4 hrs by ELISA relative to control; assay type: functional; settings: time 5 hrs
RAW264.7 [25] = assay: Activation of JNK phosphorylation in mouse RAW264.7 cells at 50 uM measured after 4 hrs by Western blot analysis; assay type: cell-based
RAW-Blue [26] = assay: Inhibition of LPS-induced NF-kappaB activity in mouse RAW-Blue cells assessed as reduction in SEAP reporter activity at 5 to 20 uM preincubated for 1 hr followed by LPS stimulation and measured after 24 hrs by SEAP reporter gene assay; assay type: cell-based; settings: dose 5-20 µM, time 25.0 hrs
Mus musculus [27] = assay: Antiinflammatory activity in LPS-induced BALB/c mouse model of acute lung injury assessed as reduction in neutrophil cell count at 1 mg/kg, ip administered twice daily for 4 days starting 1 hr post LPS challenge by differential staining based flow cytometry relative to control; assay type: functional; set-up: scale not given: the % may be the effect or the level left; settings: time 4 day
[28] = Cytotoxicity against HEK293 cells assessed as reduction in cell viability measured after 24 hrs by Celltiter-glo assay; assay type: cell-based; settings: human
[29] = GSH reactivity in PBS assessed as GSH adduct formation by measuring half life by HPLC-MS analysis; assay type: ADME
RAW264.7 [30] = assay: Antiinflammatory activity in BSO-treated mouse RAW264.7 cells assessed as inhibition of LPS-induced TNFalpha release at 2.5 to 10 uM preincubated for 1 hr followed by LPS stimulation and measured after 4 hrs by ELISA; assay type: functional, cell-based; settings: dose 2.5-10 µM, time 5.0 hrs
RAW264.7 [31] = assay: Cytotoxicity against mouse RAW264.7 cells assessed as reduction cell viability at 20 uM measured after 24 hrs by Celltiter-glo assay; assay type: cell-based; settings: raw264.7, 24 h
RAW-Blue [32] = assay: Inhibition of LPS-induced NF-kappaB activity in mouse RAW-Blue cells assessed as reduction in SEAP reporter activity at 5 to 20 uM preincubated for 1 hr followed by LPS stimulation and measured after 8 to 24 hrs by SEAP reporter gene assay; assay type: cell-based; settings: dose 5-20 µM, time 25.0 hrs
RAW264.7 [33] = assay: Cytotoxicity against BSO-treated mouse RAW264.7 cells assessed as reduction cell viability measured after 24 hrs by Celltiter-glo assay; assay type: cell-based; settings: raw264.7, 24 h, dose 10-20 µM
RAW264.7 [34] = assay: Cytotoxicity against mouse RAW264.7 cells assessed as reduction cell viability at 5 uM measured after 24 hrs by Celltiter-glo assay; assay type: cell-based; settings: raw264.7, 24 h

RAC-alpha serine/threonine-protein kinase (Mus musculus), sequence (P31750 whole entry): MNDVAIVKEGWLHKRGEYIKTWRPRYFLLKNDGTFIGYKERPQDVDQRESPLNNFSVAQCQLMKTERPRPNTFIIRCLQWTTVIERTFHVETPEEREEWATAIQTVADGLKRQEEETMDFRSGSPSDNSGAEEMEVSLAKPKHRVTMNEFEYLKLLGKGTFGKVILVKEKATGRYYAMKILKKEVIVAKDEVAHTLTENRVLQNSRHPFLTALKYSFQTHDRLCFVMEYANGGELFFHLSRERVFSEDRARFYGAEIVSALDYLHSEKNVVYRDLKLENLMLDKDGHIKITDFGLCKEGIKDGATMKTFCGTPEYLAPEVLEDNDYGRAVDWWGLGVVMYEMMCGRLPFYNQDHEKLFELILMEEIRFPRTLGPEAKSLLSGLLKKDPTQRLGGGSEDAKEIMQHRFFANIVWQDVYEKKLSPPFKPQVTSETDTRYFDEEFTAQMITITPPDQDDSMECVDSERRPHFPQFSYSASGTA
T1 sequence (P63085 whole entry, looked up): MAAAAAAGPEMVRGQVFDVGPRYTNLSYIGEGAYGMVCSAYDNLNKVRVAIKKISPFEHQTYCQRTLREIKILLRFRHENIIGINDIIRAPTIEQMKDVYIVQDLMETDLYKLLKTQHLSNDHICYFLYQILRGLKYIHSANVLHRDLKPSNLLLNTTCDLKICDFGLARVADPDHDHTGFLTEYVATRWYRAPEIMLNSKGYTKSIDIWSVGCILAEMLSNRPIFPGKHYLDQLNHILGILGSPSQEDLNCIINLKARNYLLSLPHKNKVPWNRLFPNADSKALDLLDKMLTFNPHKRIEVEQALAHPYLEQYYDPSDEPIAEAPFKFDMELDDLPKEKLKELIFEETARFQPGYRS
T1 sequence (Q63844 whole entry, looked up): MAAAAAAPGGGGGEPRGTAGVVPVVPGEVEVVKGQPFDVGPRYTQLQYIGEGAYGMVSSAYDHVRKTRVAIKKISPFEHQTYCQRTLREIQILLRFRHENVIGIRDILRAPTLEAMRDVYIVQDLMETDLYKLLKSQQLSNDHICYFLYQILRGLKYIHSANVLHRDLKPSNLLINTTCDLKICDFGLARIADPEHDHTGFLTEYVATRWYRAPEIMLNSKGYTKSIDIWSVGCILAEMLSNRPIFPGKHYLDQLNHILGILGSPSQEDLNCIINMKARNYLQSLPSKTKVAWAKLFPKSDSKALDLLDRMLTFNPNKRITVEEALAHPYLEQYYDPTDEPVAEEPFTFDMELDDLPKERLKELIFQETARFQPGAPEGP

Row | SMILES | Activity (RAW-Blue [1]) | inhibition (RAW-Blue [2]) | Stabilty [3] | inhibition (RAW264.7 [9]) | CC50 at 24 h [10] [µM] | Drug metabolism [13] | inhibition at 10 µM (RAW264.7 [14]) [%] | inhibition at 10 µM (RAW264.7 [17]) [%] | K [22] [M⁻¹ s⁻¹] | inhibition (RAW264.7 [23]) | inhibition at 10 µM (RAW264.7 [24]) [%] | inhibition (RAW-Blue [26]) | CC50 at 24 h [28] [µM] | t1/2 [29] [h] | other results
1 | C=C1CC[C@@H]2[C@](C)(CO)[C@H](O)CC[C@@]2(C)[C@@H]1C/C=C/C(C)=O | inactive | Active | Stable | Active | 30.1 | Metabolite_Notdetected | 23 | 51 | 2.11e-05 | Active | 12 | Active | 67 | 6.47 | Activity [4]: Non-Toxic; inhibition [5]: Active; inhibition [6]: Dose-dependent effect; Activity (RAW264.7 [7]): Toxic; Activity (Mus musculus [8]): >30%; Activity (Mus musculus [11]): Dose-dependent effect; Activity (RAW-Blue [12]): inactive; inhibition [15]: Active; inhibition [16]: Dose-dependent effect; Activity (Mus musculus [18]): Dose-dependent effect; inhibition [19]: Active; Activity (RAW264.7 [20]): inactive; Activity [21]: Active; Activity (RAW264.7 [25]): inactive; Activity (Mus musculus [27]): >30%
2 | C=C1CC[C@@H]2[C@](C)(CO)[C@H](O)CC[C@@]2(C)[C@@H]1C/C=C1/C(=O)OC[C@H]1O [ANDROGRAPHOLIDE] | inactive | – | Stable | Active | 14.7 | – | 30 | 62 | 2.44e-05 | Active | 17 | – | 26.2 | 5.46 | inhibition (RAW264.7 [30]): Active; Activity (RAW-Blue [12]; filed as activator): Active; Activity (RAW264.7 [31]): Toxic; inhibition (RAW-Blue [32]): inactive; Activity (RAW264.7 [20]; filed as activator): Active; Activity (RAW264.7 [25]; filed as activator): Active; CC50 (RAW264.7 [33]): 10 µM
3 | C=C1CC[C@@H]2[C@](C)(CO)[C@H](O)CC[C@@]2(C)[C@@H]1C/C=C/C(=O)c1ccccc1 | – | Active | Stable | Active | – | Metabolite_Notdetected | – | – | 6.036e-05 | Active | – | Active | – | 2.12 | Activity (RAW264.7 [34]): Toxic
